From paper PMC12141164, “Phase-1 study of vamotinib (PF-114), a 3rd generation BCR::ABL1 tyrosine kinase-inhibitor, in chronic myeloid leukaemia” (Annals of Hematology, 2025)
“And” between values parts separate entries of the source, which are not always exact repeats. Equal entries are not always repeated. Marks after values point to notes of the source that are not given here.

Tested on: BCR::ABL1 positive CML
Test: Phase-1 study: haematological, cytogenetic and molecular response
Type: in vivo, human
Conditions: for Best response achieved on PF-114: individual patients
Description: Haematological response evaluations were done on the first day of each cycle of therapy; molecular response on the first day of cycles 1, 2, 4, 7, 10, 13 and then every three months; cytogenetic response – at screening and on the first days of cycles 4, 7, 13 and every three months thereafter, provided that there was no major molecular response.
Cytogenetic response was assessed by differential staining of chromosomes and if uninformative, by fluorescent in situ hybridization (FISH). Mutations in BCR::ABL1 were assessed by Sanger and next generation sequencing (NGS). Sanger sequencing was done at each center; NGS analyses were done in the laboratory of Prof. Susan Branford, University of Adelaide. Discordances were resolved as described in Table S2. Molecular response was assessed using the ratio of BCR::ABL1 to ABL1 measured according to the IS [9].

[1] = Subjects after ponatinib (N = 5)

## Cc1ccc(C(=O)Nc2ccc(CN3CCN(C)CC3)c(C(F)(F)F)c2)cc1C#Cc1nnc2ccccn12 [vamotinib]
Advanced phase CML (N = 5)
  CCyR: none and 0/5
  MCyR: none and 0/5
  MMR: 0/5
BCR::ABL1^T315I
  subjects with BCR::ABL1^T315I who responded: 5 of 16 subjects
Cohort 1 50 mg N=3
  CCyR achieved at treatment: 0 no. (%)
  CCyR by 6 months: 0 no. (%)
  CCyR by 12 months: 0 no. (%)
  CHR achieved at treatment: 1 (50) no. (%)
  CHR by the 3 months: 0 no. (%)
  CHR by the 6th months: 0 no. (%)
  CHR by the 12th months: 1 (50) no. (%)
  MCyR achieved at treatment: 0 no. (%)
  MCyR by 6 months: 0 no. (%)
  MCyR by 12 months: 0 no. (%)
  MMR achieved at treatment: 0 no. (%)
  MMR by 6 months: 0 no. (%)
  MMR by 12 months: 0 no. (%)
  MMR by 24 months: 0 no. (%)
  Subjects with loss of CCyR: 0 no. (%)
  Subjects with loss of CHR: 0 no. (%)
  Subjects with loss of MCyR: 0 no. (%)
  Subjects with loss of MMR: 0 no. (%)
Cohort 2 100 mg N=3
  CCyR achieved at treatment: 1 (33) no. (%)
  CCyR by 6 months: 0 no. (%)
  CCyR by 12 months: 0 no. (%)
  CHR achieved at treatment: 0 no. (%)
  CHR by the 3 months: 0 no. (%)
  CHR by the 6th months: 0 no. (%)
  CHR by the 12th months: 0 no. (%)
  MCyR by 6 months: 1 (33) no. (%)
  MCyR by 12 months: 1 (33) no. (%)
  MMR achieved at treatment: 1 (33) no. (%)
  MMR by 6 months: 0 no. (%)
  MMR by 12 months: 0 no. (%)
  MMR by 24 months: 1 (33) no. (%)
  Subjects with loss of CCyR: 0 no. (%)
  Subjects with loss of CHR: 0 no. (%)
  Subjects with loss of MCyR: 0 no. (%)
  Subjects with loss of MMR: 0 no. (%)
Cohort 3 200 mg N=11
  CCyR achieved at treatment: 3 (30) no. (%)
  CCyR by 6 months: 2 (20) no. (%)
  CCyR by 12 months: 2 (20) no. (%)
  CHR achieved at treatment: 2 (40) no. (%)
  CHR by the 3 months: 2 (40) no. (%)
  CHR by the 6th months: 2 (40) no. (%)
  CHR by the 12th months: 2 (40) no. (%)
  MCyR achieved at treatment: 4 (50) no. (%)
  MCyR by 6 months: 3 (38) no. (%)
  MCyR by 12 months: 3 (38) no. (%)
  MMR achieved at treatment: 2 (18) no. (%)
  MMR by 6 months: 1 (9) no. (%)
  MMR by 12 months: 1 (9) no. (%)
  MMR by 24 months: 2 (18) no. (%)
  Subjects with loss of CCyR: 1 (33) no. (%)
  Subjects with loss of CHR: 2 (100) no. (%)
  Subjects with loss of MCyR: 1 (25) no. (%)
  Subjects with loss of MMR: 0 no. (%)
Cohort 4 400 mg N=12
  CCyR achieved at treatment: 1 (8) no. (%)
  CCyR by 6 months: 1 (8) no. (%)
  CCyR by 12 months: 1 (8) no. (%)
  CHR achieved at treatment: 4 (57) no. (%)
  CHR by the 3 months: 2 (29) no. (%)
  CHR by the 6th months: 2 (29) no. (%)
  CHR by the 12th months: 4 (57) no. (%)
  MCyR achieved at treatment: 2 (19) no. (%)
  MCyR by 6 months: 2 (19) no. (%)
  MCyR by 12 months: 2 (19) no. (%)
  MMR achieved at treatment: 0 no. (%)
  MMR by 6 months: 0 no. (%)
  MMR by 12 months: 0 no. (%)
  MMR by 24 months: 0 no. (%)
  Subjects with loss of CCyR: 0 no. (%)
  Subjects with loss of CHR: 4 (100) no. (%)
  Subjects with loss of MCyR: 0 no. (%)
  Subjects with loss of MMR: 0 no. (%)
Cohort 5 500 mg N=3
  CCyR achieved at treatment: 0 no. (%)
  CCyR by 6 months: 0 no. (%)
  CCyR by 12 months: 0 no. (%)
  CHR achieved at treatment: 0 no. (%)
  CHR by the 3 months: 0 no. (%)
  CHR by the 6th months: 0 no. (%)
  CHR by the 12th months: 0 no. (%)
  MCyR achieved at treatment: 0 no. (%)
  MCyR by 6 months: 0 no. (%)
  MCyR by 12 months: 0 no. (%)
  MMR achieved at treatment: 0 no. (%)
  MMR by 6 months: 0 no. (%)
  MMR by 12 months: 0 no. (%)
  MMR by 24 months: 0 no. (%)
  Subjects with loss of CCyR: 0 no. (%)
  Subjects with loss of CHR: 0 no. (%)
  Subjects with loss of MCyR: 0 no. (%)
  Subjects with loss of MMR: 0 no. (%)
Cohort 6 600 mg N=6
  CCyR achieved at treatment: 0 no. (%)
  CCyR by 6 months: 0 no. (%)
  CCyR by 12 months: 0 no. (%)
  CHR achieved at treatment: 2 (33) no. (%)
  CHR by the 3 months: 2 (33) no. (%)
  CHR by the 6th months: 2 (33) no. (%)
  CHR by the 12th months: 2 (33) no. (%)
  MCyR achieved at treatment: 0 no. (%)
  MCyR by 6 months: 0 no. (%)
  MCyR by 12 months: 0 no. (%)
  MMR achieved at treatment: 0 no. (%)
  MMR by 6 months: 0 no. (%)
  MMR by 12 months: 0 no. (%)
  MMR by 24 months: 0 no. (%)
  Subjects with loss of CCyR: 0 no. (%)
  Subjects with loss of CHR: 0 no. (%)
  Subjects with loss of MCyR: 0 no. (%)
  Subjects with loss of MMR: 0 no. (%)
Cohort 7 750 mg N=4
  CCyR achieved at treatment: 0 no. (%)
  CCyR by 6 months: 0 no. (%)
  CCyR by 12 months: 0 no. (%)
  CHR achieved at treatment: 1 (25) no. (%)
  CHR by the 3 months: 1 (25) no. (%)
  CHR by the 6th months: 1 (25) no. (%)
  CHR by the 12th months: 1 (25) no. (%)
  MCyR achieved at treatment: 0 no. (%)
  MCyR by 6 months: 0 no. (%)
  MCyR by 12 months: 0 no. (%)
  MMR achieved at treatment: 0 no. (%)
  MMR by 6 months: 0 no. (%)
  MMR by 12 months: 0 no. (%)
  MMR by 24 months: 0 no. (%)
  Subjects with loss of CCyR: 0 no. (%)
  Subjects with loss of CHR: 0 no. (%)
  Subjects with loss of MCyR: 0 no. (%)
  Subjects with loss of MMR: 0 no. (%)
Cohort 8 300 mg N=9
  CCyR achieved at treatment: 5 no. (%) and 5 (56) no. (%)
  CCyR by 6 months: 3 (33) no. (%)
  CCyR by 12 months: 4 (44) no. (%)
  CHR achieved at treatment: 4 (100) no. (%)
  CHR by the 3 months: 4 (100) no. (%)
  CHR by the 6th months: 4 (100) no. (%)
  CHR by the 12th months: 4 (100) no. (%)
  MCyR achieved at treatment: 6 no. (%) and 6 (86) no. (%)
  MCyR by 6 months: 4 (57) no. (%)
  MMR achieved at treatment: 4 no. (%) and 4 (44) no. (%)
  MMR by 6 months: 3 (33) no. (%)
  MMR by 12 months: 3 (33) no. (%)
  MMR by 24 months: 4 (44) no. (%)
  Subjects with loss of CCyR: 1 (20) no. (%)
  Subjects with loss of CHR: 2 (50) no. (%)
  Subjects with loss of MCyR: 1 (17) no. (%)
  Subjects with loss of MMR: 0 no. (%)
[1]
  CCyR: none and 0/5^*
  MCyR: none and 0/5
  MMR: 0/5^*
Subjects with BCR::ABL1^T315I (N = 16)
  MMR: 0/16
Total N=51
  CCyR achieved at treatment: 10 no. (%) and 10 (20) no. (%)
  CCyR by 6 months: 6 (12) no. (%)
  CCyR by 12 months: 7 (14) no. (%)
  CHR achieved at treatment: 14 no. (%) and 14 (47) no. (%)
  CHR by the 3 months: 11 (37) no. (%)
  CHR by the 6th months: 11 (37) no. (%)
  CHR by the 12th months: 14 (47) no. (%)
  MCyR achieved at treatment: 14 no. (%) and 14 (32) no. (%)
  MCyR by 6 months: 10 (23) no. (%)
  MCyR by 12 months: 11 (25) no. (%)
  MMR achieved at treatment: 7 no. (%) and 7 (14) no. (%)
  MMR by 6 months: 4 (8) no. (%)
  MMR by 12 months: 4 (8) no. (%)
  MMR by 24 months: 7 (14) no. (%)
  Subjects with loss of CCyR: 2 (20) no. (%)
  Subjects with loss of CHR: 8 no. (%) and 8 (57) no. (%)
  Subjects with loss of MCyR: 2 (14) no. (%)
Dose of 300 mg
  subjects achieving deep molecular response MR4.5: One
In vivo
  Median time to achieving a CHR: 3.8 months
  median time to MMR: 5,6 months
  median time to achievement of CCyR: 5.6 months
  median time to achievement of MCyR: 4.5 months
Dose cohort 50 mg
  Best response achieved on PF-114: CHR
Dose cohort 100 mg, listed as PF-114
  Best response achieved on PF-114: MCyR and MMR
Dose cohort 125 mg
  Best response achieved on PF-114: MR 4.5
Dose cohort 200 mg, listed as PF-114
  Best response achieved on PF-114: CHR and MCyR and CCyR and MR 4
Dose cohort 300 mg, listed as PF-114
  Best response achieved on PF-114: MMR and CHR and MR 4 and CCyR and MR 4.5
Dose cohort 400 mg, listed as PF-114
  Best response achieved on PF-114: CHR and CCyR and MCyR
Dose cohort 600 mg
  Best response achieved on PF-114: CHR
Dose cohort 750 mg
  Best response achieved on PF-114: CHR
One subject, myeloid variant M0 blast crisis, i(17) and BCR::ABL1^T315I
  time to CHR: 5 weeks
Subjects with BCR::ABL1^T315I
  duration of CCyR: 2.8 months
  duration of MCyR: 2.8 months
